The values below come from ChEMBL document CHEMBL6182915, “Discovery of a Potent FLT3 Inhibitor (E)-4-(3-(3-Fluoro-4-(morpholinomethyl)styryl)-1H-indazol-6-yl)pyridin-2-amine for the Treatment of Acute Myeloid Leukemia with Multiple FLT3 Mutations” (J Med Chem, 2025).

Assay in all cases: cells
Test [1] has as its system MV4-11. The settings on record: Homo sapiens, MV4-11, 72 h.
Test [2] relates to MV4-11. The settings on record: Homo sapiens, MV4-11, 72 h. This is another data set of the same source.
Description: Antiproliferative activity against human MV4-11 cells harboring FLT3-ITD mutant assessed as inhibition of cell growth incubated for 3 days by MTT assay
Test [3] relates to MV4-11. The settings on record: Homo sapiens, MV4-11, 72 h, read-out: INH.

Each structure is given as a SMILES string. Bounds are passed on as bounds.

One may read the IC50 as the concentration needed to halve the response being measured. A high value points to lower potency.

Regarding `Nc1nccc(-c2ccc3c(/C=C/c4ccc(CN5CCOCC5)c(F)c4)n[nH]c3c2)n1`, the IC50 in test [1] is 0.6 µM; in test [2], 10.7 nM.

Take `O=C(c1ccc(/C=C/c2n[nH]c3cc(-c4cccnc4)ccc23)cc1)N1CCNCC1`: the half-inhibitory concentration (IC50) was more than 10 µM in test [1] and 16.5 nM in test [2].

In the case of `Nc1cc(-c2ccc3c(/C=C/c4ccc(N5CCOCC5)cc4)n[nH]c3c2)ccn1`, the IC50 was 3.4 µM in test [1] and 9 nM in test [2].

On to `CN1CCN(c2ccc(-c3n[nH]c4cc(-c5ccnc(N)c5)ccc34)cc2)CC1`, for which the results for the IC50 in test [1] and in test [2] were more than 10 µM and 54.9 nM, respectively.

For `O=C(c1ccc(/C=C/c2n[nH]c3ccc(-c4cccnc4)cc23)cc1)N1CCNCC1`, the IC50 in test [1] is more than 10 µM; in test [2], 15.1 nM.

On to `Nc1cc(-c2ccc3c(/C=C/c4ccc(C(=O)N5CCNCC5)cc4)n[nH]c3c2)ccn1`, for which the IC50 in test [1] was determined as 1.8 µM; in test [2] it was 6.2 nM.

As to `Nc1cc(-c2ccc3c(/C=C/c4ccncc4)n[nH]c3c2)ccn1`, the IC50 in test [1] turned out to be 6.9 µM; in test [2], 18.4 nM.

Regarding `Nc1cc(-c2ccc3c(/C=C/c4ccc(CN5CCOCC5)cc4)n[nH]c3c2)ccn1`, the IC50 in test [1] worked out at 1.1 µM; in test [2] it was 11.4 nM.

Take `Nc1cc(-c2ccc3c(-c4ccc(S(=O)(=O)N5CCOCC5)cc4)n[nH]c3c2)ccn1`: the figures for the IC50 in test [1] and in test [2] were more than 10 µM and 197 nM, respectively.

Take `Nc1cc(-c2ccc3c(/C=C/c4cccnc4)n[nH]c3c2)ccn1`: the IC50 stood at 2.3 µM in test [1] and 29.5 nM in test [2].

`O=C(c1ccc(/C=C/c2n[nH]c3cc(-c4ccccc4)ccc23)cc1)N1CCNCC1`: the IC50 is 6.9 µM in test [1] and 22.5 nM in test [2].

As for `CN1CCN(Cc2ccc(-c3n[nH]c4cc(-c5ccnc(N)c5)ccc34)cc2)CC1`, the IC50 in test [1] is more than 10 µM; in test [2], 156 nM.

Consider `Nc1cc(-c2ccc3c(/C=C/c4ccccc4)n[nH]c3c2)ccn1`, for which the IC50 in test [1] came to 6.1 µM; in test [2], 39.8 nM.

For `Nc1cc(-c2ccc3c(/C=C/c4ccc(C(=O)N5CCOCC5)cc4)n[nH]c3c2)ccn1`, the IC50 in test [1] was 2.3 µM; in test [2] it was 20.3 nM.

On to `CCc1nc(C(N)=O)c(Nc2ccc(N3CCC(N4CCN(C)CC4)CC3)c(OC)c2)nc1NC1CCOCC1` [GILTERITINIB], for which the inhibition at 10 µM in test [3] is more than 70%.

In the case of `O=C(Cc1ccc(-c2ccc(OCCN3CCOCC3)cc2)cn1)NCc1ccccc1` [TIRBANIBULIN], the inhibition at 10 µM in test [3] was more than 70%.

Take `Nc1cc(-c2ccc3c(/C=C/c4ccc(CN5CCOCC5)c(Cl)c4)n[nH]c3c2)ccn1`: the IC50 amounted to 0.8 µM in test [1] and 10.4 nM in test [2].

In the case of `CN1CCN(Cc2ccc(/C=C/c3n[nH]c4cc(-c5ccnc(N)c5)ccc34)cc2)CC1`, the IC50 came out at 1.6 µM in test [1] and 16.5 nM in test [2].

In the case of `O=C(c1ccc(/C=C/c2n[nH]c3ccc(-c4ccncc4)cc23)cc1)N1CCNCC1`, the values for the IC50 in test [1] and in test [2] were more than 10 µM and 58.7 nM, respectively.

Consider `O=C(c1ccc(/C=C/c2n[nH]c3cc(-c4ccncc4)ccc23)cc1)N1CCNCC1`, for which the results for the IC50 in test [1] and in test [2] were 3.4 µM and 12.9 nM, respectively.

For the compound `Nc1ccc(-c2ccc3c(/C=C/c4ccc(C(=O)N5CCNCC5)cc4)n[nH]c3c2)cn1`, the IC50 was more than 10 µM in test [1] and 27.1 nM in test [2].

Consider `COc1cc(/C=C/c2n[nH]c3cc(-c4ccnc(N)c4)ccc23)cc(OC)c1`, for which the IC50 in test [1] was more than 10 µM; in test [2], 354 nM.

On to `O=C(c1ccc(/C=C/c2n[nH]c3cc(-c4ccnc5[nH]ccc45)ccc23)cc1)N1CCNCC1`, for which the results for the concentration for half-maximal inhibition (IC50) in test [1] and in test [2] were 5.7 µM and 18.7 nM, respectively.

As to `Nc1cc(-c2cnc3c(/C=C/c4ccc(CN5CCOCC5)c(F)c4)n[nH]c3c2)ccn1`, the results for the 50% inhibitory concentration (IC50) in test [1] and in test [2] were 0.9 µM and 25.6 nM, respectively.

For the compound `CN1CCN(c2ccc(/C=C/c3n[nH]c4cc(-c5ccnc(N)c5)ccc34)cc2)CC1`, the IC50 in test [1] came to 2.8 µM; in test [2] it was 6.4 nM.

As to `Nc1cc(-c2ccc3c(-c4ccc(N5CCOCC5)cc4)n[nH]c3c2)ccn1`, the IC50 is more than 10 µM in test [1] and 44.5 nM in test [2].

Turning to `O=C(c1ccc(/C=C/c2n[nH]c3ccc(-c4ccccc4)cc23)cc1)N1CCNCC1`, the IC50 in test [1] was more than 10 µM; in test [2], 55.3 nM.

Take `Nc1cc(-c2ccc3c(-c4cnn(CCO)c4)n[nH]c3c2)ccn1`: the values for the IC50 in test [1] and in test [2] were more than 10 µM and 222 nM, respectively.

As to `CCn1cc(-c2n[nH]c3cc(-c4ccnc(N)c4)ccc23)cn1`, the 50% inhibitory concentration (IC50) is more than 10 µM in test [1] and 163 nM in test [2].

With `Nc1cc(-c2ccc3c(-c4ccc(CN5CCOCC5)cc4)n[nH]c3c2)ccn1`, the figures for the IC50 in test [1] and in test [2] were more than 10 µM and 87.7 nM, respectively.

For `Nc1cc(-c2ccc3c(CCc4ccc(CN5CCOCC5)c(F)c4)n[nH]c3c2)ccn1`, the IC50 in test [1] was more than 10 µM; in test [2], 219 nM.
